The values below come from patent US11446298B2, “Pyrimidine derivatives” (Idorsia Pharmaceuticals Ltd, priority 2017, dated 2022).

Holding throughout (assay type): cell-based
The target of experiment [1] is T1, EP2 (Homo sapiens, UniProt P43116).
T1 construct: SF295 glioblastoma cells express high endogenous EP2 and no EP4; host or cells: SF295 glioblastoma cells
Nature of the experiment: hEP2 cAMP Assay (SF295 glioblastoma cells, HTRF cAMP, PGE2 75 nM). Conditions: antagonistic activity, PGE2 75 nM (EC80). The protocol:
(§1) The antagonistic activities of the compounds of formula (I) on the EP2 and EP4 receptors are also determined in accordance with the following experimental method.
(§2) Human tumor cell lines expressing endogenously either EP4 or EP2 are used and cAMP accumulation in cells upon PGE2 stimulation is monitored. SF295 glioblastoma cells express high endogenous EP2 and no EP4, whereas BT549 breast cancer cells, express high endogenous EP4 levels and very low EP2 levels.
(§3) As a detection method for cAMP the HTRF (homogeneous time resolved fluorescence) Cisbio kit (HTRF cAMP dynamic 2 kit 20′000 tests Cisbio Cat. #62AM4PEC) was used, which is based on a competitive immunoassay using a Cryptate-labeled anti-cAMP antibody and d2-labeled cAMP. Native cAMP produced by cells or unlabeled cAMP (for the standard curve) compete with exogenously added d2-labeled cAMP (acceptor) for binding to monoclonal anti-cAMP-Eu3+Cryptate (donor). A FRET signal (Fluorescence Resonance Energy Transfer) is obtained only if the labeled anti-cAMP antibody binds the d2 labelled cAMP, thus the specific signal (i.e. energy transfer) is inversely proportional to the concentration of cAMP in the standard or sample.
The SF295 cells (NCI/No. 0503170) are detached from culture dishes with a cell dissociation buffer (Invitrogen, 13151-014), and collected in growing medium (GM: RPM11640 (Invitrogen 21875)/10% FCS, 1% Penicilin/streptomycin). Cells are counted washed and resuspended in assay buffer (AB; HBSS, 20 mM HEPES, 0.2% BSA; 2 mM IBMX). 4′000 cells in 5 μL of AB are seeded per well of a small volume 384 well plate (black with flat bottom, Greiner 784076).
(§4) Stock solutions of test compounds are made at a concentration of 10 mM in DMSO, and serially diluted in DMSO to concentrations required for inhibition dose response curves (tested concentration range 30 μM-0.4 nM; 30 μM-0.015 nM or 1 μM-0.01 nM).
PGE2 (Cayman 14010, stock solution: 75 μM in DMSO) is used as agonist at 75 nM final concentration, corresponding to EC80.
2.5 μL of diluted compounds are transferred into the assay plate. Plate is pre-incubated 45 minutes at room temperature. Subsequently, 2.5 μL of PGE2 (final conc. 75 nM) are transferred into the assay plate. Plate is incubated 30 minutes at room temperature. Five μL of each donor (anti-cAMP cryptate) and acceptor (cAMP-d2) are added and the plate is incubated another hour at room temperature in the dark and then read using a BMG LABTECH PHERAstar reader (Excitation: 337 nm, Emission: 620 and 665 nm).
(§5) The obtained Delta F (fluorescence) values (665 nm/620 nM) are converted into % cAMP values using the measurements of the cAMP calibrator provided in the kit. For each compound concentration the percentage of cAMP compared to DMSO control value as average ±STDEV (each concentration is measured in duplicate) is calculated.
(§6) IC50 values and curves are generated with XLfit software (IDBS) using Dose-Response One Site model 203. When compounds were measured multiple times, mean values are given.
(TR-FRET usually uses a lanthanide donor and a delayed reading to cut background.)

Experiment [2] concerns the target T2, PTGER2 (EP2) (Homo sapiens, UniProt P43116).
T2 construct: host or cells: HEK 293 (PathHunter, stably transfected)
Nature of the experiment: hEP2 b-Arrestin Assay (PathHunter HEK 293 PTGER2 b-arrestin cells, PGE2 5 μM). Conditions: antagonistic activity, beta-arrestin assay, HEK 293 PTGER2 cells, PGE2 5 μM (EC80); read-out: hEP2 b-arr IC50. On the procedure: as §1
The assay is using the PathHunter™ HEK 293 PTGER2 and PTGER4 b-arrestin cell lines from DiscoverX. The system is based on the Enzyme Fragment Complementation Technology. Two complementing fragments of the b-galactosidase enzyme are expressed within stably transfected cells. The larger portion of b-gal, termed EA for Enzyme Acceptor, is fused to the C-terminus of b-arrestin 2. The smaller fragment, termed ProLink™ tag, is fused to PTGER2 (EP2) or PTRGER4 (EP4) at the C-terminus. Upon activation, b-arrestin is recruited which forces the interaction of ProLink and EA, allowing complementation of the two fragments of b-gal and the formation of a functional enzyme which is capable of hydrolysing the substrate and generating a chemiluminescent signal.
The HEK 293 PTGER2 b-arrestin cells (DiscoverX 93-021-4C1) are detached from culture dishes with a cell dissociation buffer (Invitrogen, 13151-014), and collected in growing medium (GM: DMEM+Glutamax-I (Invitrogen 32430)/10% FCS, 1% Penicilin/streptomycin). 5000 cells per well of a 384 well plate (white with white bottom Greiner 781080) are seeded in 20 μl per well of GM. Plate is incubated at 37° C., 5% CO2 for 24 hours.
Stock solutions of test compounds are made at a concentration of 10 mM in DMSO, and serially diluted in DMSO to concentrations required for inhibition dose response curves (tested concentration range 10 μM-2 nM or 1 μM-0.2 nM).
PGE2 (Cayman 14010, stock solution: 10 mM in DMSO) is used as agonist at 5 μM final concentration, corresponding to EC80.
Five microliters of diluted compounds are transferred into the assay plate. Plate is pre-incubated 15 minutes at 37° C. Then five microliters of PGE2 (final conc. 5 μM) are transferred into the assay plate. Plate is incubated 120 minutes at 37° C.
PathHunter Glo Detection Kit components are thawed and mix according to manufacturer's instructions: 1 part Galacton Star Substrate with 5 parts Emerald II™ Solution, and 19 parts of PathHunter Cell Assay Buffer, respectively. Twelve μl of reagent are transferred to the assay plate and incubate for 1 hour at room temperature in the dark. Luminescence counts are read on a BMG Fluostar Optima reader according to manufacturer's instructions.
For each compound concentration calculate of the percentage of activity compared to DMSO control value as average ±STDEV. (each concentration is measured in duplicate)
as §6

Experiment [3] addresses T3, EP4 (Homo sapiens, UniProt P35408).
T3 construct: BT549 breast cancer cells, express high endogenous EP4 levels and very low EP2 levels; host or cells: BT549 breast cancer cells
Description: hEP4 cAMP Assay (BT549 breast cancer cells, HTRF cAMP, PGE2 6 nM). Conditions: antagonistic activity, PGE2 6 nM (EC80). On the procedure:
as §1, §2, §3
The BT549 cells (NCI/No. 0507282) are detached from culture dishes with a cell dissociation buffer (Invitrogen, 13151-014), and collected in growing medium (GM: RPMI1640 (Invitrogen 21875)/10% FCS, 1% Penicilin/streptomycin). Cells are counted washed and resuspended in assay buffer (AB; HBSS, 20 mM HEPES, 0.2% BSA; 2 mM IBMX). 4′000 cells in 5 μL of AB are seeded per well of a small volume 384 well plate (black with flat bottom, Greiner 784076).
as §4
PGE2 (Cayman 14010, stock solution: 6 uM in DMSO) is used as agonist at 6 nM final concentration, corresponding to EC80.
2.5 μL of diluted compounds are transferred into the assay plate. Plate is pre-incubated 45 minutes at room temperature. Subsequently, 2.5 μL of PGE2 (final conc. 6 nM) are transferred into the assay plate. Plate is incubated 30 minutes at room temperature. 5 μL of each donor (anti-cAMP cryptate) and acceptor (cAMP-d2) are added and the plate is incubated another hour at room temperature in the dark and then read using a BMG LABTECH PHERAstar reader (Excitation: 337 nm, Emission: 620 and 665 nm).
as §5, §6

T1 sequence (P43116 whole entry): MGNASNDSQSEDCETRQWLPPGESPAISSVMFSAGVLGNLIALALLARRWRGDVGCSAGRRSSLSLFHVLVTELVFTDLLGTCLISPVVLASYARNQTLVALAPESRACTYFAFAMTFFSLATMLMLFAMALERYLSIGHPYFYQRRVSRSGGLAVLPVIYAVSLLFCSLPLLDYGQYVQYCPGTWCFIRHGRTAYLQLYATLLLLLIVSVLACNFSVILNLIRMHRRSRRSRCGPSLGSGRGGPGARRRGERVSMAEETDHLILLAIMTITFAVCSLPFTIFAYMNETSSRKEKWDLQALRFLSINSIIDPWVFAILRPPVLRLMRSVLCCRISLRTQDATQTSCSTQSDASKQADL
T2 sequence (P43116 whole entry): as above
T3 sequence (P35408 whole entry): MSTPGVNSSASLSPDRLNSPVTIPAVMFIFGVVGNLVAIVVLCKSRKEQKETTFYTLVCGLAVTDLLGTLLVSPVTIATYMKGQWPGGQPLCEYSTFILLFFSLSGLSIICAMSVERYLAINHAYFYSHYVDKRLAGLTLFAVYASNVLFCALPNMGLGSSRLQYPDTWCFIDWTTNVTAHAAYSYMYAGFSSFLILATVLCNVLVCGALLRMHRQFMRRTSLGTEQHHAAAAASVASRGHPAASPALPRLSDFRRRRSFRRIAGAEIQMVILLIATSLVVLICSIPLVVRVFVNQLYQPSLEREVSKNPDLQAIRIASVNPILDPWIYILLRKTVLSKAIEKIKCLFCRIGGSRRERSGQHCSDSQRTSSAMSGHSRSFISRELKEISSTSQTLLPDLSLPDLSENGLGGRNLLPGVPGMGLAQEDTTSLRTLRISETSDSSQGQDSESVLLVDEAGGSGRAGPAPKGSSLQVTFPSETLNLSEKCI

Turning to `CCOc1cc(-c2cc(NCCc3c(C)ccc4ccccc34)ncn2)ccc1OCC(=O)O` [Example 48, (2-Ethoxy-4-{6-[2-(2-methyl-naphthalen-1-yl)-ethylamino]-pyrimidin-4-yl}-phenoxy)-acetic acid], the IC50 (commonly the concentration that inhibits the measured activity by half) in experiment [1] was 0.147 µM; in experiment [2], 0.022 µM; in experiment [3] it was 0.729 µM.

In the case of `CCCCOc1cc(-c2cc(NCCc3c(OC)ccc4ccccc34)ncn2)cc(F)c1C(=O)O` [Example 124, 2-Butoxy-6-fluoro-4-{6-[2-(2-methoxy-naphthalen-1-yl)-ethylamino]-pyrimidin-4-yl}-benzoic acid], the figures for the IC50 in experiment [1], in experiment [2] and in experiment [3] were 0.1 µM, 0.035 µM and 0.446 µM, respectively.

For `CCOc1cc(-c2cc(NCCc3c(OC)ccc4ncccc34)ncn2)sc1C(=N)NO` [Example 146, 3-Ethoxy-N-hydroxy-5-{6-[2-(6-methoxy-quinolin-5-yl)-ethylamino]-pyrimidin-4-yl}-thiophene-2-carboxamidine], the IC50 in experiment [1] was found to be 0.119 µM; in experiment [2], 0.066 µM; in experiment [3] it was 0.405 µM.

As for `O=C(O)c1ccc(-c2cc(NCCc3cccc4sccc34)ncn2)cc1OC1CCC1` [Example 107, 4-[6-(2-Benzo[b]thiophen-4-yl-ethylamino)-pyrimidin-4-yl]-2-cyclobutoxy-benzoic acid], the half-inhibitory concentration (IC50) in experiment [1] worked out at 0.25 µM; in experiment [2], 0.149 µM; in experiment [3], 0.267 µM.

For `Cc1ccc2cnccc2c1CCNc1cc(-c2ccc(C(=O)O)c(OC3CCC3)c2)ncn1` [Example 84, 2-Cyclobutoxy-4-{6-[2-(6-methyl-isoquinolin-5-yl)-ethylamino]-pyrimidin-4-yl}-benzoic acid], the figures for the IC50 in experiment [1], in experiment [2] and in experiment [3] were 0.179 µM, 0.149 µM and 0.989 µM, respectively.

For the compound `CCOc1cc(-c2cc(NCCc3c(F)ccc4ccccc34)ncn2)ccc1C(=O)O` [Example 93, 2-Ethoxy-4-{6-[2-(2-fluoro-naphthalen-1-yl)-ethylamino]-pyrimidin-4-yl}-benzoic acid], the 50% inhibitory concentration (IC50) in experiment [1] was found to be 0.036 µM; in experiment [2] it was 0.036 µM; in experiment [3], 0.427 µM.

In the case of `CCOc1cc(-c2cc(NCCc3c(F)ccc4ccccc34)ncn2)ccc1CC(=O)O` [Example 97, (2-Ethoxy-4-{6-[2-(2-fluoro-naphthalen-1-yl)-ethylamino]-pyrimidin-4-yl}-phenyl)-acetic acid], the IC50 in experiment [1] was 0.218 µM; in experiment [2] it was 0.132 µM; in experiment [3], 0.355 µM.

Consider `COc1ccc2ccccc2c1CCNc1cc(-c2ccc(C(=O)O)c(CC(C)C)c2)ncn1` [Example 122, 2-Isobutyl-4-{6-[2-(2-methoxy-naphthalen-1-yl)-ethylamino]-pyrimidin-4-yl}-benzoic acid], for which the 50% inhibitory concentration (IC50) is 0.041 µM in experiment [1], 0.062 µM in experiment [2] and 0.308 µM in experiment [3].

In the case of `CCCc1cc(-c2cc(NCCc3c(OC)ccc4ccccc34)ncn2)cc(F)c1C(=O)O` [Example 123, 2-Fluoro-4-{6-[2-(2-methoxy-naphthalen-1-yl)-ethylamino]-pyrimidin-4-yl}-6-propyl-benzoic acid], the IC50 in experiment [1] worked out at 0.029 µM; in experiment [2] it was 0.031 µM; in experiment [3], 0.55 µM.

Regarding `CCOc1cc(-c2cc(NCCc3cc(OC)cc4ccccc34)ncn2)ccc1C(=O)O` [Example 40, 2-Ethoxy-4-{6-[2-(3-methoxy-naphthalen-1-yl)-ethylamino]-pyrimidin-4-yl}-benzoic acid], the 50% inhibitory concentration (IC50) was determined as 0.525 µM in experiment [1] and 0.853 µM in experiment [3].

For `CCOc1cc(-c2cc(NCCc3cccc4sccc34)ncn2)ccc1C(=O)O` [Example 106, 4-[6-(2-Benzo[b]thiophen-4-yl-ethylamino)-pyrimidin-4-yl]-2-ethoxy-benzoic acid], the IC50 in experiment [1] was found to be 0.258 µM; in experiment [3] it was 0.867 µM.

In the case of `CCOc1cc(-c2cc(NCCc3cccc4ccccc34)ncn2)ccc1OCC(=O)O` [Example 77], the 50% inhibitory concentration (IC50) in experiment [1] is 0.418 µM; in experiment [3], 0.403 µM.

Regarding `O=C(O)c1ccc(-c2cc(NCCc3cccc4cccnc34)ncn2)cc1OC1CCC1` [Example 22, 2-Cyclobutoxy-4-[6-(2-quinolin-8-yl-ethylamino)-pyrimidin-4-yl]-benzoic acid], the concentration for half-maximal inhibition (IC50) worked out at 0.949 µM in experiment [1] and 0.613 µM in experiment [3].

`COc1ccc(CCNc2cc(-c3ccc(C(=O)O)c(OC4CCC4)c3)ncn2)c2ccccc12` [Example 58, 2-Cyclobutoxy-4-{6-[2-(4-methoxy-naphthalen-1-yl)-ethylamino]-pyrimidin-4-yl}-benzoic acid]: the 50% inhibitory concentration (IC50) is 0.825 µM in experiment [1] and 0.401 µM in experiment [3].

In the case of `Cc1ccc2c(cnn2C)c1CCNc1cc(-c2ccc(-c3c(O)c(=O)c3=O)cc2)ncn1` [Example 92, 3-(4-{6-[2-(1,5-Dimethyl-1H-indazol-4-yl)-ethylamino]-pyrimidin-4-yl}-phenyl)-4-hydroxy-cyclobut-3-ene-1,2-dione], the values for the IC50 in experiment [1] and in experiment [3] were 0.287 µM and 0.544 µM, respectively.

Regarding `CCOc1cc(-c2cc(NCCc3cccc4sccc34)ncn2)ccc1CC(=O)O` [Example 110, {4-[6-(2-Benzo[b]thiophen-4-yl-ethylamino)-pyrimidin-4-yl]-2-ethoxy-phenyl}-acetic acid], the IC50 in experiment [1] stood at 0.878 µM; in experiment [3], 0.597 µM.
